According to patent US20170368134A1, “PROTEASOME INHIBITORS FOR TREATING A DISORDER RELATED TO AN ACCUMULATION OF NON-DEGRADED ABNORMAL PROTEIN OR A CANCER” (UNIVERSITÉ D'AIX-MARSEILLE, priority 2015, published 2017):
Peptide text beside a SMILES is read from it. * marks the point of attachment. Cbz = O=C(OCc1ccccc1)*

What was measured:
[1] = system: lamin C; assay: Western blot of lamin C protein in HGPS fibroblasts; type: cell-based, human; conditions: 48 h treatment with MG132 (10 μM)
Protocol: Total fibroblast proteins were extracted in 200 μL of NP40 Cell Lysis buffer (Invitrogen, Carlsbad, Calif.) containing Protease and Phosphatase Inhibitor Cocktail (Thermo Scientific). Alternatively, cells were lysed with urea (8 M urea, 5 mM dithiothreitol, 150 mM NaCl, 50 mM Tris-Cl pH 7.5, protease and phosphatase Inhibitor Cocktail (Thermo Scientific)). Cells were sonicated twice (30 sec each), incubated at 4° C. for 30 minutes and then centrifuged at 10,000 g for 10 minutes. Protein concentration was evaluated with the bicinchoninic acid technique (Pierce BCA Protein Assay Kit), absorbance at 562 nm is measured using nanodrop 1000 (Thermo Fisher Scientific Inc.) Equal amounts of proteins (40 μg) were loaded onto 10% Tis-Glycine gel (Criterion™ XT precast gel) using XT Tricine running Buffer (Biorad, USA). After electrophoresis, gels were electro transferred onto nitrocellulose membranes or Immobilon-FL polyvinylidene fluoride membranes (Millipore), blocked in Odyssey Blocking Buffer diluted 1:1 in PBS for 1 hour at room temperature, and incubated overnight at 4° C. or 2 hours at room temperature with various primary antibodies. […]

[2] = system: lamin A; assay: Intramuscular MG132 in Lmna G609G/G609G mice, lamin A in gastrocnemius muscle; type: in vivo, mouse
Protocol: (A) Lamin A, progerin, lamin C and SRSF-1 specific bands, corresponding to DMSO-treated left muscle (−) and 1 μg/Kg MG132-treated right muscle (+), were quantified by ImageJ software and their expression levels were normalized to GAPDH values.
Knock-in mouse model (Lmna^G609G/G609G) carrying the c.1827C>T (p.Gly609Gly) mutation in the endogenous Lmna gene, corresponding to the human HGPS mutation c.1824C>T (p.Gly609Gly) have been described previously (31). MG132 (1 or 10 μg/Kg body weight) was injected under isoflurane anesthesia into the right gastrocnemius muscle of […] homozygous knock-in mice (Lmna^G609G/G609G) 3 times per week for 2 weeks. Contralateral muscle served as control (DMSO). MG132 was dissolved in dimethyl sulfoxide (DMSO) and then diluted in 100 μl sterile phosphate-buffered saline (PBS) for intramuscular injection. […] Animal experiments have been carried out in compliance with the European guidelines for the care and use of laboratory animals (EU directive 2010/63/EU) and in accordance with the recommendations provided by the guide for the care and use of the laboratory animals of the French national Institute for Health and Medical Research (INSERM) and the ethical committee of Aix-Marseille University.

[3] = system: progerin; assay: Western blot of progerin levels in HGPS fibroblasts; type: cell-based, human; conditions: for reduction in progerin amounts: normalized with tubulin, vs DMSO-treated HGPS cells
Protocol: HGPS fibroblasts (AG01972: person, AG11498: person) were obtained from the Coriell Cell Repository. Cells were cultured in Dulbecco's modified Eagle's medium (Life Technologies) supplemented with 15% fetal bovine serum (Life Technologies), 2 mM L-glutamine (Life Technologies) and 1× penicillin-streptomycin (Life Technologies) at 37° C. in a humidified atmosphere containing 5% CO2. […]
Total fibroblast proteins were extracted in 200 μL of NP40 Cell Lysis buffer (Invitrogen, Carlsbad, Calif.) containing Protease and Phosphatase Inhibitor Cocktail (Thermo Scientific). Alternatively, cells were lysed with urea (8 M urea, 5 mM dithiothreitol, 150 mM NaCl, 50 mM Tris-Cl pH 7.5, protease and phosphatase Inhibitor Cocktail (Thermo Scientific)). Cells were sonicated twice (30 sec each), incubated at 4° C. for 30 minutes and then centrifuged at 10,000 g for 10 minutes. Protein concentration was evaluated with the bicinchoninic acid technique (Pierce BCA Protein Assay Kit), absorbance at 562 nm is measured using nanodrop 1000 (Thermo Fisher Scientific Inc.) Equal amounts of proteins (40 μg) were loaded onto 10% Tis-Glycine gel (Criterion™ XT precast gel) using XT Tricine running Buffer (Biorad, USA). After electrophoresis, gels were electro transferred onto nitrocellulose membranes or Immobilon-FL polyvinylidene fluoride membranes (Millipore), blocked in Odyssey Blocking Buffer diluted 1:1 in PBS for 1 hour at room temperature, and incubated overnight at 4° C. or 2 hours at room temperature with various primary antibodies. Blots were washed with TBS-T buffer [20 mM tris (pH 7.4), 150 mM NaCl, and 0.05% Tween 20] and incubated with 1:10,000 IR-Dye 800-conjugated secondary donkey anti-goat or IR-Dye 700-conjugated secondary anti-mouse antibodies (LI-COR Biosciences) in Odyssey blocking buffer (LI-COR Biosciences). For IR-Dye 800 and IR-Dye 700 detection, an Odyssey Infrared Imaging System (LI-COR Biosciences) was used. GAPDH, α-tubulin or β-actin were used as a total cellular protein loading control.

## CC(C)C[C@@H](C=O)NC(=O)[C@H](CC(C)C)NC(=O)[C@H](CC(C)C)NC(=O)OCc1ccccc1 [MG132, Z-Leu-Leu-Leu-al] (Cbz-Leu-Leu-Leu-aldehyde)
[1]
  lamin C protein levels: increased
[2]; 1 μg/Kg intramuscular, change not significant
  lamin A level in treated muscle: small increase in lamin A
[2]; 10 μg/kg body weight intramuscular
  lamin A level in treated muscle: remain constant or increase slightly
[3]; 10 μM MG132, 6 h
  reduction in progerin amounts: 31%
[3]; 10 μM MG132, 24 h
  reduction in progerin amounts: 58%
[3]; 10 μM MG132, 48 h
  reduction in progerin amounts: 65%
[3]; cells solubilized with urea, 72 h of MG132 treatment
  progerin level at longer treatment: progerin reappears after 72 h of treatment
